In ChEMBL document CHEMBL1250456, “Synthesis and binding ability of 1,2,3-triazole-based triterpenoid receptors for recognition of Hg(2+) ion” (Bioorg Med Chem Lett, 2010):
Activity calls are given as the source filed them. The rule behind the calls is not given here.

Key:
[1] = Binding affinity to copper ion by Hildebrand-Benesi equation analysis
[2] = Binding affinity to magnesium ion by UV-vis titration analysis
[3] = Binding affinity to zinc ion by UV-vis titration analysis
[4] = Binding affinity to mercury ion by Hildebrand-Benesi equation analysis
[5] = Binding affinity to cadmium ion by UV-vis titration analysis

| Ka [1] [×10³ /M] | Activity [2] | Activity [3] | Ka [4] [×10⁴ /M] | Activity [5] | SMILES |
| --- | --- | --- | --- | --- | --- |
| 5 | inactive | inactive | 2.7 | inactive | COC(=O)[C@@]1(C)CC[C@]2(C)CC[C@]3(C)C(=CC(=O)[C@@H]4[C@@]5(C)C[C@H](OC(=O)Cn6cc(COc7ccc8ccccc8c7C=O)nn6)[C@@H](OC(=O)Cn6cc(COc7ccc8ccccc8c7C=O)nn6)C(C)(C)[C@@H]5CC[C@]43C)[C@@H]2C1 |
| 1.6 | inactive | inactive | 3 | inactive | COC(=O)[C@@]1(C)CC[C@]2(C)CC[C@]3(C)C(=CC(=O)[C@@H]4[C@@]5(C)C[C@H](OC(=O)Cn6cc(COc7ccccc7C=O)nn6)[C@@H](OC(=O)Cn6cc(COc7ccccc7C=O)nn6)C(C)(C)[C@@H]5CC[C@]43C)[C@@H]2C1 |
